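Dose response: 5 concentrations. Exposure: 48 h. Format: 96-well plates. Endpoint: linear interpolation; highest concentration if not reached. Definition used: TGI = concentration required for complete inhibition of growth.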 Where a SMILES comes first, the peptide text is derived from it. [ ]: non-standard residue; d: D form. The star is where a group is joined. ξ: configuration not given here. X37 = O=C(OCc1ccccc1)[C@@H]1CCC[C@H]1N*; Fmoc = O=C(OCC1c2ccccc2-c2ccccc21)*; ξW = NC(Cc1c[nH]c2ccccc12)C(=O)O; ξF = NC(Cc1ccccc1)C(=O)O; Boc = CC(C)(C)OC(=O)*; ξK = NCCCCC(N)C(=O)O; ξT = CC(O)C(N)C(=O)O; tBu = CC(C)(C)*
Assays:
Experiment in all cases: NCI-60 cell line screen, 48 h
786-0 renal = tested on: 786-0 renal
BT-549 breast = tested on: BT-549 breast
CCRF-CEM leukemia = tested on: CCRF-CEM leukemia
HL-60(TB) leukemia = tested on: HL-60(TB) leukemia
IGROV1 ovarian = tested on: IGROV1 ovarian
MDA-MB-231 breast = tested on: MDA-MB-231 breast
MDA-N = tested on: MDA-N
MOLT-4 leukemia = tested on: MOLT-4 leukemia
NCI-H23 lung = tested on: NCI-H23 lung
SW-620 colon = tested on: SW-620 colon
NCI/ADR-RES ovarian = tested on: NCI/ADR-RES ovarian
T-47D breast = tested on: T-47D breast

Structure (SMILES) | TGI (786-0 renal) | TGI (BT-549 breast) | TGI (CCRF-CEM leukemia) | TGI (HL-60(TB) leukemia) | TGI (IGROV1 ovarian) | TGI (MDA-MB-231 breast) | TGI (MDA-N) | TGI (MOLT-4 leukemia) | TGI (NCI-H23 lung) | TGI (SW-620 colon) | TGI (NCI/ADR-RES ovarian) | TGI (T-47D breast)
Nc1nc(Cl)cc(NCC2(CO)CC(CCCCc3ccccc3)C2)n1 (stereo not given) | > 100 µM | > 100 µM | > 100 µM | 38.3 µM | > 100 µM | > 100 µM | > 100 µM | > 100 µM | > 100 µM | > 100 µM | – | –
CC(C)(C)c1cc(C2COC(=O)COCCOCC(=O)OCCOCCO2)cc(C(C)(C)C)c1O (stereo not given) | 32.5 µM | > 77.7 µM | > 100 µM | > 100 µM | > 100 µM | > 100 µM | – | > 100 µM | 99.1 µM | > 100 µM | > 100 µM | > 31.6 µM
COc1ccc2cc(C(=O)NCCc3ccccc3)ccc2c1OC | > 100 µM | – | – | – | > 100 µM | 87.4 µM | > 100 µM | > 100 µM | > 100 µM | > 100 µM | > 100 µM | > 100 µM
Cc1ccc(S(=O)(=O)OC2CN3CCC2CC3)cc1 (stereo not given) | > 100 µM | > 100 µM | > 100 µM | > 100 µM | > 100 µM | > 100 µM | – | > 100 µM | > 100 µM | > 100 µM | > 100 µM | > 100 µM
CC1OC(OP(=O)(OCc2ccccc2)OCc2ccccc2)C(OC(=O)c2ccccc2)C(OC(=O)c2ccccc2)C1I (stereo not given) | > 100 µM | – | > 100 µM | 49.4 µM | > 100 µM | – | – | 59.1 µM | > 100 µM | > 100 µM | – | –
O=C(/C=C1\N=C(c2ccccc2)N(c2ccc3c(c2)Sc2cc(N4C(=O)/C(=C/C(=O)/C=C/c5ccccc5)N=C4c4ccccc4)ccc2N3)C1=O)/C=C/c1ccccc1 | > 100 µM | 52.6 µM | 63 µM | > 100 µM | > 100 µM | 90 µM | – | > 100 µM | > 100 µM | > 100 µM | > 100 µM | > 100 µM
CCOC(=O)/C(O)=C(\C=N\C(=S)Nc1ccc(Cl)c(Cl)c1)C(=O)OCC | > 100 µM | – | > 100 µM | 59.7 µM | > 100 µM | > 100 µM | > 100 µM | > 100 µM | > 100 µM | > 100 µM | > 100 µM | –
CC1(C)OC1CC/C(=C/CBr)CBr (stereo not given) | 28.7 µM | 30.4 µM | 34.1 µM | 23.9 µM | 27.3 µM | 30.1 µM | 29.3 µM | 57.9 µM | 29.6 µM | 28.7 µM | 49.6 µM | –
CCCCc1cc2c(cc1O)CCC1C2CC[C@@]2(C)C1CC[C@@H]2O (stereo not given in full) | 73.1 µM | – | 56.7 µM | – | 49.9 µM | 62.1 µM | 51.2 µM | 28.2 µM | 41.3 µM | 59.2 µM | 38.5 µM | 35.8 µM
CC(=O)c1ccc2c(c1)CC1(C2)Cc2cc3c(cc2C1)C(=O)CC3 (stereo not given) | 20.9 µM | – | 3.87 µM | 2.1 µM | 39.2 µM | 11.2 µM | 0.492 µM | – | 14.7 µM | > 100 µM | 17.2 µM | 69.3 µM
CCC1OC2C(CC=C(C)C)=C3OC(C)(O)C(C)(CC)C(O)C3=C3OC(=O)C=C1C32 (stereo not given) | > 100 µM | 71 µM | > 100 µM | – | – | 75.5 µM | – | > 100 µM | 57.7 µM | > 100 µM | > 100 µM | > 100 µM
COC(=O)c1nc2c(C)c(O)c(O)c([C@H](C)CCC=C(C)C)c2o1 | 39.5 µM | > 100 µM | 29.6 µM | 45.6 µM | 48.1 µM | > 100 µM | – | > 100 µM | 89.8 µM | > 100 µM | > 100 µM | > 100 µM
COc1ccc(N=NN2CCCC2)cc1 | 32.7 µM | 60.6 µM | 56.6 µM | > 100 µM | 41 µM | 47.7 µM | 39.8 µM | 60.6 µM | > 100 µM | 81.4 µM | – | 49.2 µM
CC(OC(C)(C)C)C(NC(=O)C(CCCCNC(=O)OC(C)(C)C)NC(=O)C(Cc1c[nH]c2ccccc12)NC(=O)C(Cc1ccccc1)NC(=O)OCC1c2ccccc2-c2ccccc21)C(=O)NC(Cc1ccccc1)C(=O)N[C@@H]1CCC[C@H]1C(=O)OCc1ccccc1 (stereo not given in full) (Fmoc-[ξF][ξW][ξK](Boc)[ξT](tBu)[ξF]-X37) | > 100 µM | – | > 100 µM | > 100 µM | > 100 µM | > 100 µM | > 100 µM | > 100 µM | > 100 µM | > 100 µM | > 100 µM | > 100 µM
CC1(c2cccc(C3CCC4(C=CC3=O)OCCO4)c2)OCCO1 (stereo not given) | 11 µM | – | 10.5 µM | 20 µM | 32.7 µM | 26 µM | 25.2 µM | 12 µM | 24 µM | 8.07 µM | 31.5 µM | 23.5 µM
O=Cc1cc(O)c(O)c(O)c1-c1c(C=O)cc(O)c(O)c1O | > 100 µM | – | > 100 µM | > 100 µM | > 100 µM | – | – | > 100 µM | > 100 µM | > 100 µM | – | –
N#Cc1nn(-c2ccc(Cl)cc2)c(N)c2c(=N)n3nc(-c4ccccc4)cc3nc12 | > 100 µM | – | > 100 µM | > 100 µM | > 32 µM | – | – | > 100 µM | > 51.9 µM | > 100 µM | – | –
CC(C)(C)[C@@H]1NC(=O)CN1C(=O)OCc1ccccc1 | > 100 µM | > 100 µM | > 100 µM | > 100 µM | > 100 µM | > 100 µM | – | > 100 µM | > 100 µM | > 100 µM | > 100 µM | > 100 µM
Brc1ccc(-c2ccc(-c3ccc(Br)s3)s2)s1 | > 100 µM | > 100 µM | > 100 µM | > 100 µM | > 100 µM | – | > 100 µM | > 100 µM | > 100 µM | > 100 µM | > 100 µM | > 100 µM
CC(=O)c1nc2ccccc2n1CC(=O)c1ccc([N+](=O)[O-])cc1 | 15.9 µM | 52.6 µM | > 100 µM | > 100 µM | 14.5 µM | > 100 µM | – | 84.5 µM | > 100 µM | 41.6 µM | 49.2 µM | > 100 µM
